{
  "source": "patent US9846160B2",
  "about": "“Ganglioside GD2 as a marker and target on cancer stem cells” (Board of Regents, The University of Texas System, priority 2012, dated 2017)",
  "key": {"[1]": {"test_system": "MDA-MB-231 cells", "assay": "Tumor growth inhibition and survival, MDA-MB-231 xenografts", "format": "in vivo, NOD/SCID mice", "conditions": "for tumor growth compared to control mice: after 4 weeks; for reduction in tumor volume: in 25% of mice, 0.15 mg/kg/day", "experimental": "MDA-MB-231 cells (A) or SUM159 cells (B) (5×10^5/well) of 6 well cell culture dish was treated with 25 nM or 50 nM or 75 nM or 100 nM or 125 nM concentration of Triptolide for 24 hrs. Total RNA was extracted and GD3S expression was measured by real-time RT-PCR. (C) To measure GD2^+ cells growth inhibition, 5×10^5 MDA-MB-231 cells were plated in each well of 6 well cell culture dish and treated with 25 nM or 50 nM or 75 nM or 100 nM or 125 nM concentration of Triptolide for 48 hrs or 72 hrs. After incubation, the cells were detached with trypsin and stained with anti-GD2 antibody and Sytox-Red (for dead cells). The stained cells were analyzed on LSR-II flow cytometer. Absolute number of live cells were calculated by measuring 1000 events for True Count® beads as explained methods. (D) To determine the inhibition of tumor growth, 1×10^6 MDA-MB-231 cells were subcutaneously transplanted into NOD/SCID mice (n=8, 4 mice/group). A group of the mice were treated with 0.15 mg/kg/day of triptolide and the control group was treated with PBS everyday by intra peritoneal injections. At the end of 8 weeks, mice were sacrificed, tumors were dissected out and photographed. (E) Tumors sizes from the mice in experiment in FIG. 6D were measured every week after tumor engraftment and the measurements were shown in a line graph. (F) The survival analysis was based on Kaplan-Myer estimation and groups were compared by the log-rank test. Control (n=4, black line) and Triptolide (n=4, blue line), were analyzed for cumulative survival. Survival was defined as the time (in weeks) from transplant until death. P value represents the statistical significance.\nFor mRNA analysis 5×10^5 MDA-MB-231 or SUM159 breast cancer cell lines were incubated with triptolide (Alexis Biochemicals, San Diego, Calif.) at 25, 50, 75, 100 and 125 nM concentrations for 24 hrs at 37° C. in six-well cell culture dishes. For the growth inhibition studies, 3×10^5 MDA-MB-231 cells cultured in a 6 well tissue culture dishes were treated with triptolide at specified concentrations for either 24 hrs or 48 hrs. After incubation the cells were detached using trypsin and stained with anti-GD2 antibody (by indirect staining protocol) and pacific-blue conjugated Annexin-V (Invitrogen, Carlsbad, Calif.) following the manufactures instructions. The cells were analyzed in LSR-II flow cytometer (BD). The absolute number of cells were counted by measuring True Count® counting beads (Invitrogen) as per manufacturer's instructions. To examine tumor growth inhibition, survival of murine tumor xenografts was determined by subcutaneous administration of 1×10^6 MDA-MB-231 cells into 8-10 week old NOD/SCID mice. After growing for 2 weeks tumor xenografts reached a size of ˜50 mm^3 Thereafter, Triptolide (0.15 mg/Kg/day) was administered IP into the mice on a daily basis. The mice were sacrificed when the control tumors reached 2 cm or higher following institutional guidelines.\nAfter the tumors reached 50 mm^3, the mice were randomly divided into two groups, and half of the mice treated with triptolide (0.15 mg/kg/day) while the other half were treated with PBS (control mice) every day by intraperitoneal injections. […] Fifty percent of triptolide treated breast tumors were completely tumor free and there was reduction in tumor volume by >8-fold in 25% of mice (FIG. 6D). In addition, tumors in triptolide treated mice were 3-fold smaller in size and 4-fold lighter by weight (FIG. 6E, FIG. 16). […] These findings indicate that […] plays a major role in regulating […] expression and the resulting GD2^+ population. Specifically, it affects cell proliferation and tumor initiation of GD2^+ breast cancer cells and when inhibited, greatly diminishes tumor growth and increases metastasis free survival of breast cancer bearing mice."}, "[2]": {"test_system": "GD3S", "conditions": "melanoma cancer cell line; cited from earlier work"}, "[3]": {"test_system": "GD3S mRNA expression", "assay": "GD3S mRNA expression by real-time RT-PCR in SUM159 cells", "format": "cell-based, Human", "conditions": "Sum159, 125 nM, 24 hr, dose dependent", "experimental": "(§1) MDA-MB-231 cells (A) or SUM159 cells (B) (5×10^5/well) of 6 well cell culture dish was treated with 25 nM or 50 nM or 75 nM or 100 nM or 125 nM concentration of Triptolide for 24 hrs. Total RNA was extracted and GD3S expression was measured by real-time RT-PCR. (C) To measure GD2^+ cells growth inhibition, 5×10^5 MDA-MB-231 cells were plated in each well of 6 well cell culture dish and treated with 25 nM or 50 nM or 75 nM or 100 nM or 125 nM concentration of Triptolide for 48 hrs or 72 hrs. After incubation, the cells were detached with trypsin and stained with anti-GD2 antibody and Sytox-Red (for dead cells). The stained cells were analyzed on LSR-II flow cytometer. Absolute number of live cells were calculated by measuring 1000 events for True Count® beads as explained methods. […] (E) Tumors sizes from the mice in experiment in FIG. 6D were measured every week after tumor engraftment and the measurements were shown in a line graph. […] Control (n=4, black line) and Triptolide (n=4, blue line), were analyzed for cumulative survival. […]\n(§2) For mRNA analysis 5×10^5 MDA-MB-231 or SUM159 breast cancer cell lines were incubated with triptolide (Alexis Biochemicals, San Diego, Calif.) at 25, 50, 75, 100 and 125 nM concentrations for 24 hrs at 37° C. in six-well cell culture dishes. […] The cells were analyzed in LSR-II flow cytometer (BD). […]"}, "[4]": {"test_system": "GD3S mRNA expression", "assay": "GD3S mRNA expression by real-time RT-PCR in MDA-MB-231 cells", "format": "cell-based, Human", "experimental": "as §1, §2"}, "[5]": {"test_system": "MDA-MB-231 cells", "assay": "GD2+ cell growth inhibition / apoptosis by flow cytometry after triptolide", "format": "cell-based, Human", "experimental": "as §1, §2"}, "[6]": {"conditions": "0.15 mg/kg/day intraperitoneal, listed as triptolide"}},
  "note": "“Also recorded” adds a separate entry of the source.",
  "data": [
    {"compound": "CC(C)[C@]12O[C@H]1[C@@H]1O[C@]13[C@]1(O[C@H]1C[C@H]1C4=C(CC[C@@]13C)C(=O)OC4)[C@@H]2O", "note": "[Triptolide]", "values": [
      {"measurement": "treated breast tumors completely tumor free", "setting": "[1]; 0.15 mg/kg/day intraperitoneal", "result": "Fifty"},
      {"measurement": "tumors lighter by weight vs control", "setting": "[1]; 0.15 mg/kg/day intraperitoneal", "result": 4, "unit": "fold"},
      {"measurement": "tumors smaller in size vs control", "setting": "[1]; 0.15 mg/kg/day intraperitoneal", "result": 3, "unit": "fold"},
      {"measurement": "tumor growth compared to control mice", "setting": "[1]; 0.15 mg/kg/day intraperitoneal", "result": "blocks tumor growth"},
      {"measurement": "tumor growth compared to control mice", "setting": "[1]; [6]", "result": "dramatic decrease in tumor growth"},
      {"measurement": "tumor mass", "setting": "[1]; FIG. 16, p<0.01", "result": "reduces tumor mass"},
      {"measurement": "reduction in tumor volume", "setting": "[1]; 0.15 mg/kg/day intraperitoneal", "result": "7- to 8 fold"},
      {"measurement": "reduction in tumor volume", "setting": "[1]; [6]", "result": "> 8", "unit": "fold"},
      {"measurement": "mice in which tumors were eliminated", "setting": "[1]; intra-peritoneal administration", "result": 50, "unit": "%"},
      {"measurement": "survival of treated mice", "setting": "[1]; repeat experiment, Log-rank control vs triptolide p=0.0015", "result": "significantly prolonged survival"},
      {"measurement": "inhibition of GD3S", "setting": "[2]", "result": "has been shown to inhibit GD3S"},
      {"measurement": "inhibition of GD3S mRNA expression", "setting": "[3]", "result": "> 95", "unit": "%"},
      {"measurement": "inhibition of GD3S mRNA expression", "setting": "[4]; MDA-MB-231, 125 nM, 24 hr, dose dependent", "result": "> 95", "unit": "%"},
      {"measurement": "inhibition of GD3S expression", "setting": "[4]; breast cancer cells, dose dependent manner (summary)", "result": "> 95", "unit": "%"},
      {"measurement": "decrease of GD2+ cells (absolute cell counts)", "setting": "[5]; MDA-MB-231, different concentrations, 24 or 48 hours", "result": "dose dependent and time dependent decrease of GD2^+ cells"},
      {"measurement": "induction of apoptosis", "setting": "[5]; breast cancer cells / MDA-MB-231", "result": "induce apoptosis in MDA-MB-231 cells; also recorded: induced apoptosis in a time dependent manner"}
    ]}
  ]
}
